pIC50: −log10 of the molar value.
Legend:
Type in all cases: biochemical
HDAC6 = target: T1, HDAC6 (Homo sapiens, UniProt Q9UBN7); experiment: Human HDAC enzyme inhibitor Fluor-de-Lys assay, HDAC6
T1 sequence (Q9UBN7 1-1215): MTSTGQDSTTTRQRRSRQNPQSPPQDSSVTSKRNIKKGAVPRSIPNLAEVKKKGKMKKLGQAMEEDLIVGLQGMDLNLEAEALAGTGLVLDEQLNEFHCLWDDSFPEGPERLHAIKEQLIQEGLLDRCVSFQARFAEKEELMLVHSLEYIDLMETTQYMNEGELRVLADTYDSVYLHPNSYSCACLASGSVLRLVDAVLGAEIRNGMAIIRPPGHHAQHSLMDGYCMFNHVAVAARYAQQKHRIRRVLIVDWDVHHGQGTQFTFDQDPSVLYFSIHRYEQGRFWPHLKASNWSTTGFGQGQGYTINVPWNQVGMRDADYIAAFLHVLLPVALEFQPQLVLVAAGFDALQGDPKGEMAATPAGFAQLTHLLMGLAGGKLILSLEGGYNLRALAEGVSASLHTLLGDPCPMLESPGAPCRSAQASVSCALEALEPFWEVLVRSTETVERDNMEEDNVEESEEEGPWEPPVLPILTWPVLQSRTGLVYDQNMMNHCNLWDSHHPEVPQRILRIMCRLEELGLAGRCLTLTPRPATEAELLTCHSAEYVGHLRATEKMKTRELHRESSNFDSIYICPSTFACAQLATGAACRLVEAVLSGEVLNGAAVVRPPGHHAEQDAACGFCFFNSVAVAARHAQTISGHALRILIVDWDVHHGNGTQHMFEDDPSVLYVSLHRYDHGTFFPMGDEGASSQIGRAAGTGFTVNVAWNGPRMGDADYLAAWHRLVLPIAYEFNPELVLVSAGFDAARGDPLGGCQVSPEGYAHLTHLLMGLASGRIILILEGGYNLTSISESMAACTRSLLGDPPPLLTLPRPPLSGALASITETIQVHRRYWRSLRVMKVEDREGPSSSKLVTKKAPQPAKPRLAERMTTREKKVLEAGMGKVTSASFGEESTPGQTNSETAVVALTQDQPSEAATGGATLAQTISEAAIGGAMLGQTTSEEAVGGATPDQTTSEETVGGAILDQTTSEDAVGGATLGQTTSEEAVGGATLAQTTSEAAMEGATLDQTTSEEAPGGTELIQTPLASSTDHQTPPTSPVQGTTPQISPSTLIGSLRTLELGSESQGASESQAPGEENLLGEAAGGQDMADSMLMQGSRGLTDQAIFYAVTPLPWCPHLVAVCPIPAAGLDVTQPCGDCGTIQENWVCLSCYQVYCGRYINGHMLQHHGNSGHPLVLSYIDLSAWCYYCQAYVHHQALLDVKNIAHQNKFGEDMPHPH

Recombinant human HDAC8 = target: T2, Recombinant human HDAC8 (Homo sapiens, UniProt Q9BY41); experiment: Human HDAC enzyme inhibitor Fluor-de-Lys assay, HDAC8
T2 construct: purchased Enzo Life Sciences BML-SE145-0100
T2 sequence (Q9BY41 1-377): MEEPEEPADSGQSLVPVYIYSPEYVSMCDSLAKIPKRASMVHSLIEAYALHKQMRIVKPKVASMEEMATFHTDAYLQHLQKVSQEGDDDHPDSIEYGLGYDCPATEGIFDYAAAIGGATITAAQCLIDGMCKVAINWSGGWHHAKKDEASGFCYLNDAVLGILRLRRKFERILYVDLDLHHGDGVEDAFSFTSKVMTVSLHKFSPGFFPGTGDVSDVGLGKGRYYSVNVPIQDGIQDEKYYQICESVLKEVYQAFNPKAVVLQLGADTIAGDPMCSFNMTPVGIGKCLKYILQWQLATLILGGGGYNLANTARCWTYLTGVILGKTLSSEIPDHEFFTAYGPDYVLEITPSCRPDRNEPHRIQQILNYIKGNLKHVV

Recombinant human HDAC2 = target: T3, Recombinant human HDAC2 (Homo sapiens, UniProt Q92769); experiment: Human HDAC enzyme inhibitor Fluor-de-Lys assay, HDAC2
T3 construct: Full length human HDAC2-FLAG was expressed in baculovirus infected Sf9 cells; FLAG (C); made in house; host or cells: Sf9 (baculovirus)
Method in brief: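 Fluor-de-Lys format at room temperature (23° C.): compounds titrated 10-point, 1:3, preincubated with HDAC before substrate addition. Developer with excess HDAC inhibitor ends the reaction, and trypsin-liberated AMC fluorescence is the read-out.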

Recombinant human HDAC1 = target: T4, Recombinant human HDAC1 (Homo sapiens, UniProt Q13547); experiment: Human HDAC enzyme inhibitor Fluor-de-Lys assay, HDAC1
T4 construct: FLAG (C); made in house
Method in brief: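 Fluor-de-Lys format at room temperature (23° C.): compounds titrated 10-point, 1:3, preincubated with HDAC before substrate addition; HDAC1 run at 0.3 nM enzyme with 20 μM BML-KI104. Developer with excess HDAC inhibitor ends the reaction, and trypsin-liberated AMC fluorescence is the read-out.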

T3 sequence (Q92769 whole entry): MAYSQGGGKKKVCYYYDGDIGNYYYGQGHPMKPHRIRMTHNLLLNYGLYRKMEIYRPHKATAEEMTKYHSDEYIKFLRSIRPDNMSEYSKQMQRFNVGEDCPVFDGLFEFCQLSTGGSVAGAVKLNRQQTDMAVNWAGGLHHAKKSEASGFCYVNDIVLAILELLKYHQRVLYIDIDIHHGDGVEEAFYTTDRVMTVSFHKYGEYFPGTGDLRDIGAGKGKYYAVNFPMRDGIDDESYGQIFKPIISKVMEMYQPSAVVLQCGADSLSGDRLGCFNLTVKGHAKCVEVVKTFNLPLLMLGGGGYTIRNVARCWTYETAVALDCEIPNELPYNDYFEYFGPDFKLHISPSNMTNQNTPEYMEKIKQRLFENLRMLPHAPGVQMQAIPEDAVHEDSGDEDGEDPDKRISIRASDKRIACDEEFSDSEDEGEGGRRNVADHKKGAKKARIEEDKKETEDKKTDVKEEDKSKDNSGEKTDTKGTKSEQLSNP
T4 sequence (Q13547 whole entry): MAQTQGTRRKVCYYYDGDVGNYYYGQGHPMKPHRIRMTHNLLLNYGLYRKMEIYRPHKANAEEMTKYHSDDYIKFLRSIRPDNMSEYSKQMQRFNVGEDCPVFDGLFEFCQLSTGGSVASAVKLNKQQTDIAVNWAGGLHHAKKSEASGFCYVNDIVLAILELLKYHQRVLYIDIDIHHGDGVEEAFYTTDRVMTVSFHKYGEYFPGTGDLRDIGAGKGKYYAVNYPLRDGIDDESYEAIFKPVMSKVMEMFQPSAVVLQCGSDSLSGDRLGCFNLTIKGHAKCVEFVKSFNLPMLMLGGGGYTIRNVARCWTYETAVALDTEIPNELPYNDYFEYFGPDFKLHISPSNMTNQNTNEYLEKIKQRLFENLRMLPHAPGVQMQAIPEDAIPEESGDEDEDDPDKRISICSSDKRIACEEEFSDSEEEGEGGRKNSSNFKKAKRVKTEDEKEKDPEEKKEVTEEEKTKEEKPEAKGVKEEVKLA

Compound	pIC50 (HDAC6)	pIC50 (Recombinant human HDAC8)	pIC50 (Recombinant human HDAC2)	pIC50 (Recombinant human HDAC1)
CCC(=O)CCCCC[C@H](NC(=O)[C@H]1CC12CCN(C)CC2)c1ncc(-c2ccc3nc(N(C)C)ccc3c2)[nH]1 [Compound 66, (1S)—N-[(1S)-1-{5-[2-(dimethylamino)quinolin-6-yl]-1H-imidazol-2-yl}-7-oxononyl]-6-methyl-6-azaspiro[2.5]octane-1-carboxamide]	< 6.35	< 5.82	< 6.05	6.83
C=CCN1CCC2(CC1)C[C@@H]2C(=O)N[C@@H](CCCCCC(=O)CC)c1ncc(-c2cccc3c2C2CCC3N2CC=C)[nH]1 (stereo partly drawn) [Compound 180, (1S)—N-{(1S)-7-oxo-1-[5-(9-prop-2-en-1-yl-1,2,3,4-tetrahydro-1,4-epiminonaphthalen-5-yl)-1H-imidazol-2-yl]nonyl}-6-prop-2-en-1-yl-6-azaspiro[2.5]octane-1-carboxamide]	5.67	6.57	7.53	8.27
CCC(=O)CCCCC[C@H](NC(=O)C1=NOC2(CCN(C)CC2)C1)c1ncc(-c2cc3ccc(C)nc3cc2F)o1 [Compound 221]	< 6.05	< 6.05	7.26	8.06
CCC(=O)CCCCC[C@H](NC(=O)C1=NOC2(CCN(C)CC2)C1)c1ncc(-c2cc3ccc(C)nc3cc2OC)o1 [Compound 196]	6.12	< 6.05	8.22	8.85
CCC(=O)CCCCC[C@H](NC(=O)[C@H]1CC12CCN(C)CC2)c1[nH]c(-c2ccc(F)cc2)nc1C#N [Compound 76]	4.57	4.78	7.71	8.41
CCC(=O)CCCCC[C@H](NC(=O)[C@H]1CC12CCN(CC1CC1)CC2)c1ncc(-c2ccc3nc(C4CC4)ccc3c2)[nH]1 [Compound 104]	5.28	5.30	> 8.82	> 8.82
CCC(=O)CCCCC[C@H](NC(=O)[C@H]1CC12CCN(C)CC2)c1ncc(-c2ccc3c(=O)n(C)ccc3c2)o1 [Compound 137]	5.56	4.47	7.76	8.11
CCC(=O)CCCCC[C@H](NC(=O)[C@H]1CC12CCN(CC)CC2)c1ncc(-c2ccc3nc(C4CC4)ccc3c2)o1 [Compound 114]	5.39	4.57	8.33	8.95
CCC(=O)CCCCC[C@H](NC(=O)C1=NOC2(CCN(C)CC2)C1)c1ncc(-c2cc3ccc(=O)n(C)c3cc2OC)o1 [Compound 193]	< 6.05	< 6.05	7.96	8.52
CCC(=O)CCCCC[C@H](N)c1ncc(-c2ccc3nc(C)ccc3c2)[nH]1 [Compound 178]	< 4.35	5.49	6.41	6.97
CCN1CCC2(CC1)C[C@@H]2C(=O)N[C@@H](CCCCCC(=O)CC1CC1)c1ncc(-c2cc3ccc(C)nc3cc2OC)o1 [Compound 167]	5.48	5.08	8.10	9.01
CC(O)C(=O)CCCCC[C@H](NC(=O)[C@H]1CC12CCN(C)CC2)c1nc(-c2ccc(F)cc2)c[nH]1 (stereo partly drawn) [Compound 134, (1S)—N-{(1S)-1-[4-(4-fluorophenyl)-1H-imidazol-2-yl]-8-hydroxy-7-oxononyl}-6-methyl-6-azaspiro[2.5]octane-1-carboxamide]	5.75	6.24	7.29	7.98
CCC(=O)CCCCC[C@H](NC(=O)C1CN(C)C1)c1[nH]c(-c2ccc(F)cc2)nc1Br [Compound 65, N-{(1S)-1-[4-bromo-2-(4-fluorophenyl)-1H-imidazol-5-yl]-7-oxononyl}-1-methylazetidine-3-carboxamide]	< 4.35	4.40	6.51	7.35
CCC(=O)CCCCC[C@H](NC(=O)[C@H]1CC12CCN(CC)CC2)c1ncc(-c2ccc3c(=O)n(C(C)C)ccc3c2)[nH]1 [Compound 126]	4.74	5.19	8.89	9.72
CCC(=O)CCCCC[C@H](NC(=O)[C@H]1CC12CCN(C)CC2)c1ncc(-c2cc(OC)c3ccccc3n2)[nH]1 [Compound 170]	6.03	6.08	7.77	8.24
CCC(=O)CCCCC[C@H](NC(=O)[C@H]1CC[C@]2(CC1)OC(=O)c1cccnc12)c1ncc(-c2ccc3nc(C4CC4)ccc3c2)o1 [Compound 123]	< 4.82	< 4.82	7.02	7.46
COc1cc2nc(C)ccc2cc1-c1cnc([C@H](CCCCCC(=O)CC2CC2)NC(=O)[C@H]2CC23CCN(C)CC3)o1 [Compound 195, (1S)—N-{(1S)-8-cyclopropyl-1-[5-(7-methoxy-2-methylquinolin-6-yl)-1,3-oxazol-2-yl]-7-oxooctyl}-6-methyl-6-azaspiro[2.5]octane-1-carboxamide]	4.67	5.10	8.01	9.07
CCC(=O)CCCCC[C@H](NC(=O)[C@H]1CC12CCN(C)CC2)c1ncc(-c2ccc3nc(C4CC4)ccc3c2)o1 [Compound 121]	5.32	4.82	8.36	8.86
CCC(=O)CCCCC[C@H](NC(=O)[C@H]1CC12CCN(C)CC2)c1ncc(-c2ccc3nc(C)cc(Cl)c3c2)[nH]1 [Compound 174]	6.02	5.92	8.68	9.26
CCC(=O)CCCCC[C@H](NC(=O)C1CC12CCN(C)C(C)(C)C2)c1ncc(-c2ccc3nc(C)ccc3c2)[nH]1 (single isomer, unassigned) [Compound 133]	6.06	5.69	8.68	> 8.82
CCC(=O)CCCCC[C@H](NC(=O)C1=NOC2(CCN(C)CC2)C1)c1ncc(-c2ccc3nc(C4CC4)ccc3c2)o1 [Compound 135]	< 4.82	4.74	7.36	7.83
CCC(=O)CCCCC[C@H](NC(=O)C1CCC2(CC1)CN(C)C2)c1ncc(-c2ccc3nn(C)cc3c2)[nH]1 [Compound 156]	5.12	5.23	7.82	8.30
CCC(=O)CCCCC[C@H](NC(=O)[C@H]1CC12CCN(CC1CC1)CC2)c1ncc(-c2ccc3nc(C4CC4)ccc3c2)o1 [Compound 115]	5.37	4.81	8.70	> 8.82
CCN1CCC2(CC1)C[C@@H]2C(=O)N[C@@H](CCCCCC(=O)CC1CC1)c1ncc(-c2ccc(F)cc2)[nH]1 [Compound 201]	4.45	4.85	7.49	8.14
CCC(=O)CCCCC[C@H](NC(=O)C1=NOC2(CCN(C)CC2)C1)c1ncc(-c2cc3ccccc3nc2OC)[nH]1 [Compound 105]	5.82	5.54	8.28	9.04

From patent US12590099B2, “Inhibitors of histone deacetylase useful for the treatment or prevention of HIV infection” (Merck Sharp & Dohme LLC, priority 2018, dated 2026)
